From patent US8017589B2, “Avermectin B1 and avermectin B1 monosaccharide derivatives having an alkoxymethyl substituent in the 4″-or 4′-position” (Syngenta Crop Protection LLC, priority 2002, dated 2011) come the findings set out here.

A value given as a limit tells only on which side of the number the result lay.

Assay type in all cases: in vivo
In one experiment the test system is Plutella xylostella. Kind of experiment: Action against Plutella xylostella caterpillars (spray on young cabbage plants). Conditions: 72 h, 12.5 ppm spray mixture, 10 caterpillars in the first stage, 3 days later, read-out: percentage reduction in population and percentage reduction in feeding damage (% activity). The protocol: After the spray-coating has dried, the cabbage plants are populated with 10 caterpillars of Plutella xylostella in the first stage and placed in a plastics container. Evaluation is made 3 days later. The percentage reduction in population and the percentage reduction in feeding damage (% activity) are determined by comparing the number of dead caterpillars and the feeding damage on the treated plants with that on the untreated plants.

The subject of the next experiment is Tetranychus urticae. Kind of experiment: Action against Tetranychus urticae (spray on young bean plants). The note with it: 144 h, 12.5 ppm spray mixture, mixed population, 6 days at 25° C., read-out: percentage reduction in population (% activity). The protocol: The plants are incubated for 6 days at 25° C. and subsequently evaluated. The percentage reduction in population (% activity) is determined by comparing the number of dead eggs, larvae and adults on the treated plants with that on untreated plants.

For the next experiment, the system named is Spodoptera littoralis. Kind of experiment: Action against Spodoptera littoralis (foliar spray on young soybean plants). Conditions: 72 h, 12.5 ppm spray mixture, 10 caterpillars in the first stage, 3 days later, read-out: percentage reduction in population and percentage reduction in feeding damage (% activity). The protocol:
3 days later, the percentage reduction in population and the percentage reduction in feeding damage (% activity) are determined by comparing the number of dead caterpillars and the feeding damage on the treated plants with that on untreated plants.

In the case of `CCC(C)[C@H]1O[C@]2(C=C[C@@H]1C)C[C@@H]1C[C@@H](C/C=C(\C)[C@@H](OC3C[C@H](OC)[C@@H](OC4C[C@H](OC)[C@H](OCOCCOC)[C@H](C)O4)[C@H](C)O3)C(C)/C=C/C=C3\CO[C@@H]4[C@H](O)C(C)=C[C@@H](C(=O)O1)[C@]34O)O2` (stereo partly drawn) [Compound 2.8, 4″-epi-O-(2-methoxyethoxymethyl)-Avermectin B1], the inhibition at 12.5 ppm in the experiment on Plutella xylostella was more than 80%. Regarding `CCC(C)[C@H]1O[C@]2(C=C[C@@H]1C)C[C@@H]1C[C@@H](C/C=C(\C)[C@@H](OC3C[C@H](OC)[C@@H](OCOCCN)[C@H](C)O3)C(C)/C=C/C=C3\CO[C@@H]4[C@H](O)C(C)=C[C@@H](C(=O)O1)[C@]34O)O2` (stereo partly drawn) [Compound 3.19], the inhibition at 12.5 ppm in the experiment with Tetranychus urticae and in the experiment with Spodoptera littoralis was more than 80% each time.
